Molecular target: recombinant DYRK1A kinase (Homo sapiens (Human), UniProt Q13627)
Experiment: DYRK1A kinase assay (Ser/Thr 18 peptide Z-lyte FRET)
Assay type: biochemical
Conditions: DYRK1A kinase activity, Z-lyte Ser/Thr 18 peptide, 15 μM ATP; method text calls the value IC50; read-out: EC50 (the source's name)
Experimental: Representative compounds were screened using the assay procedure for DYRK1A kinase activity as described below.
Each compound was dissolved in DMSO as a 10 mM stock and used to prepare compound source plates. Serial dilution (1:3, 11-point dose-response curves from 10 μM to 0.00016 μM) and compound transfer was performed using the ECHO 550 (Labcyte, Sunnyvale, CA) into 1536-well black-walled round bottom plates (Coming).
The DYRK1A kinase assay was run using the Ser/Thr 18 peptide Z-lyte assay kit according to manufacturer's instructions (Life Technologies-a Division of Thermo-Fisher). This is a non-radioactive assay using fluorescence resonance energy transfer (FRET) between coumarin and fluorescein to detect kinase activity which is represented as a ratio of coumarin emission/fluorescein emission.
Briefly, recombinant DYRK1A kinase, ATP and Ser/Thr peptide 18 were prepared in 1X Kinase buffer to final concentrations of 0.25 μg/mL, 15 μM, and 4 μM respectively. The mixture was allowed to incubate with the representative compounds for one hour at room temperature. All reactions were performed in duplicate. Unphosphorylated (“0% Control”) and phosphorylated (“100% control”) forms of Ser/Thr 18 served as control reactions. Additionally, an 11-point dose-response curve of Staurosporine (luM top) was run to serve as a positive compound control.
After incubation, Development Reagent A was diluted in Development Buffer then added to the reaction and allowed to further incubate for one hour at room temperature. The plate was read at Ex 400 Em 455 to detect the coumarin signal and Ex 400 Em 520 to measure the signal (EnVision Multilabel Plate Reader, PerkinElmer).
The Emission ratio (Em) was calculated as a ratio of the coumarin (C) emission signal (at 445 nm)/Fluorescein (F) emission signal (at 520 nm). The percent phosphorylation was then calculated using the following formula: [1−((Em ratio X F100%)-C100%)/((C0%-C100%) +(Em ratio X (F100%−F0%)))]. Dose-response curves were generated, and inhibitory concentration (IC50) values were calculated using non-linear regression curve fit in the Dotmatics' Studies Software (Bishops Stortford, UK).

| IC50 | Compound |
| --- | --- |
| 1.6 nM | COc1nc(NC2CCN(C(C)=O)CC2)nn2ccc(-c3ccc4nc(C)n(CC(F)F)c4c3)c12 [Compound 122, 1-(4-((5-(1-(2,2-Difluoroethyl)-2-methyl-1H-benzo[d]imidazol-6-yl)-4-methoxypyrrolo[2,1-f]1[1,2,4]triazin-2-yl)amino)piperidin-1-yl)ethan-1-one] |
| 2.8 nM | COc1nc(N[C@@H]2CCN(C)C[C@@H]2F)nn2ccc(-c3ccc4nc(C)n(CC(F)F)c4c3)c12 [Compound 124, 5-(1-(2,2-Difluoroethyl)-2-methyl-1H-benzo[d]imidazol-6-yl)-N-((3S,4R)-3-fluoro-1-methylpiperidin-4-yl)-4-methoxypyrrolo[2,1-f][1,2,4]triazin-2-amine] |
| 2.2 nM | COc1nc(N[C@H]2CCN(C)C[C@H]2F)nn2ccc(-c3ccc4nc(C)n(CC(F)F)c4c3)c12 [Compound 127, 5-(1-(2,2-Difluoroethyl)-2-methyl-1H-benzo[d]imidazol-6-yl)-N-((3R,4S)-3-fluoro-1-methylpiperidin-4-yl)-4-methoxypyrrolo[2,1-f][1,2,4]triazin-2-amine] |
| 2.6 nM | COc1nc(N[C@@H]2CCN(CCF)C[C@@H]2F)nn2ccc(-c3ccc4nc(C)n(CC(F)F)c4c3)c12 [Compound 129, 5-(1-(2,2-Difluoroethyl)-2-methyl-1H-benzo[d]imidazol-6-yl)-N-((3S,4R)-3-fluoro-1-(2-fluoroethyl)piperidin-4-yl)-4-methoxypyrrolo[2,1-f][1,2,4]triazin-2-amine] |
| 1.9 nM | COc1nc(N[C@H]2CCN(C3COC3)C[C@H]2F)nn2ccc(-c3ccc4nc(C)n(CC(F)F)c4c3)c12 [Compound 137, 5-(1-(2,2-Difluoroethyl)-2-methyl-1H-benzo[d]imidazol-6-yl)-N-((3R,4S)-3-fluoro-1-(oxetan-3-yl)piperidin-4-yl)-4-methoxypyrrolo[2,1-f][1,2,4]triazin-2-amine] |
| 4.3 nM | COc1nc(N[C@@H]2CCN(C)CC2(F)F)nn2ccc(-c3ccc4nc(C)n(CC(F)F)c4c3)c12 [Compound 138, (R)—N-(3,3-Difluoro-1-methylpiperidin-4-yl)-5-(1-(2,2-difluoroethyl)-2-methyl-1H-benzo[d]imidazol-6-yl)-4-methoxypyrrolo[2,1-f][1,2,4]triazin-2-amine] |
| 6.9 nM | COc1nc(N[C@H]2CCN(C)CC2(F)F)nn2ccc(-c3ccc4nc(C)n(CC(F)F)c4c3)c12 [Compound 139, (S)—N-(3,3-Difluoro-1-methylpiperidin-4-yl)-5-(1-(2,2-difluoroethyl)-2-methyl-1H-benzo[d]imidazol-6-yl)-4-methoxypyrrolo[2,1-f][1,2,4]triazin-2-amine] |
| 10.7 nM | COc1nc(N[C@@H]2CCN(C3CCC3)CC2(F)F)nn2ccc(-c3ccc4nc(C)n(CC(F)F)c4c3)c12 [Compound 140, (R)—N-(1-Cyclobutyl-3,3-difluoropiperidin-4-yl)-5-(1-(2,2-difluoroethyl)-2-methyl-1H-benzo[d]imidazol-6-yl)-4-methoxypyrrolo[2,1-f][1,2,4]triazin-2-amine] |
| 21.8 nM | COc1nc(N[C@H]2CCN(C3CCC3)CC2(F)F)nn2ccc(-c3ccc4nc(C)n(CC(F)F)c4c3)c12 [Compound 141, (S)—N-(1-Cyclobutyl-3,3-difluoropiperidin-4-yl)-5-(1-(2,2-difluoroethyl)-2-methyl-1H-benzo[d]imidazol-6-yl)-4-methoxypyrrolo[2,1-f][1,2,4]triazin-2-amine] |
| 2.7 nM | COc1nc(N[C@@H]2CCN(C3COC3)CC2(F)F)nn2ccc(-c3ccc4nc(C)n(CC(F)F)c4c3)c12 [Compound 142, (R)—N-(3,3-Difluoro-1-(oxetan-3-yl)piperidin-4-yl)-5-(1-(2,2-difluoroethyl)-2-methyl-1H-benzo[d]imidazol-6-yl)-4-methoxypyrrolo[2,1-f][1,2,4]triazin-2-amine] |
| 10.8 nM | COc1nc(N[C@H]2CCN(C3COC3)CC2(F)F)nn2ccc(-c3ccc4nc(C)n(CC(F)F)c4c3)c12 [Compound 143, (S)—N-(3,3-Difluoro-1-(oxetan-3-yl)piperidin-4-yl)-5-(1-(2,2-difluoroethyl)-2-methyl-1H-benzo[d]imidazol-6-yl)-4-methoxypyrrolo[2,1-f][1,2,4]triazin-2-amine] |
| 1.8 nM | COc1nc(N[C@H]2C[C@@](C)(NC(C)=O)C2)nn2ccc(-c3cc(F)c4nc(C)n(CC(F)F)c4c3)c12 [Compound 148, N-((1s,3s)-3-((5-(1-(2,2-Difluoroethyl)-4-fluoro-2-methyl-1H-benzo[d]imidazol-6-yl)-4-methoxypyrrolo[2,1-f][1,2,4]triazin-2-yl)amino)-1-methylcyclobutyl)acetamide] |

More lines, now with the values behind:

| Compound | IC50 |
| --- | --- |
| COc1nc(N[C@H]2C[C@](C)(NC(=O)OC(C)(C)C)C2)nn2ccc(-c3ccn4nccc4c3)c12 [Compound 98, tert-Butyl (trans-3-((4-methoxy-5-(pyrazolo[1,5-a]pyridin-5-yl)pyrrolo[2,1-f][1,2,4]triazin-2-yl)amino)-1-methylcyclobutyl)carbamate] | 25.6 nM |
| CCOc1nc(NC2CC3(C2)CN(C(C)=O)C3)nn2ccc(-c3ccn4nccc4c3)c12 [Compound 99, 1-(6-((4-Ethoxy-5-(pyrazolo[1,5-a]pyridin-5-yl)pyrrolo[2,1-f][1,2,4]triazin-2-yl)amino)-2-azaspiro[3.3]heptan-2-yl)ethan-1-one] | 4.5 nM |
| CNC(=O)c1cnn2ccc(-c3ccn4nc(NC5CCC6(CC5)COC6)nc(OC)c34)cc12 [Compound 102, 5-(2-((2-Oxaspiro[3.5]nonan-7-yl)amino)-4-methoxypyrrolo[2,1-f][1,2,4]triazin-5-yl)-N-methylpyrazolo[1,5-a]pyridine-3-carboxamide] | 1.9 nM |
| COc1nc(N[C@H]2CC[C@](C)(O)CC2)nn2ccc(-c3ccc4ncc(C#N)n4c3)c12 [Compound 103, 6-(2-((trans-4-hydroxy-4-methylcyclohexyl)amino)-4-methoxypyrrolo[2,1-f][1,2,4]triazin-5-yl)imidazo[1,2-a]pyridine-3-carbonitrile] | 5.9 nM |
| COc1nc(N[C@H]2CC[C@](C)(O)CC2)nn2ccc(-c3ccc4ncc(C(N)=O)n4c3)c12 [Compound 104, 6-(2-((trans-4-hydroxy-4-methylcyclohexyl)amino)-4-methoxypyrrolo[2,1-f][1,2,4]triazin-5-yl)imidazo[1,2-a]pyridine-3-carboxamide] | 1.2 nM |
| CNC(=O)c1cnc2ccc(-c3ccn4nc(NC5CCC6(CC5)COC6)nc(OC)c34)cn12 [Compound 107, 6-(2-((2-Oxaspiro[3.5]nonan-7-yl)amino)-4-methoxypyrrolo[2,1-f][1,2,4]triazin-5-yl)-N-methylimidazo[1,2-a]pyridine-3-carboxamide] | 0.9 nM |
| COc1nc(N[C@H]2C[C@@](C)(NC(C)=O)C2)nn2ccc(-c3ccc4nc(C)n(CC(F)F)c4c3)c12 [Compound 108, N-(cis-3-((5-(1-(2,2-Difluoroethyl)-2-methyl-1H-benzo[d]imidazol-6-yl)-4-methoxypyrrolo[2,1-f][1,2,4]triazin-2-yl)amino)-1-methylcyclobutyl)acetamide] | 3.3 nM |
| COc1nc(N[C@H]2C[C@](C)(C(=O)N(C)C)C2)nn2ccc(-c3ccc4nc(C)n(CC(F)F)c4c3)c12 [Compound 109, trans-3-((5-(1-(2,2-Difluoroethyl)-2-methyl-1H-benzo[d]imidazol-6-yl)-4-methoxypyrrolo[2,1-f][1,2,4]triazin-2-yl)amino)-N,N,1-trimethylcyclobutane-1-carboxamide] | 1 nM |
| COc1nc(N[C@H]2CC[C@](C)(O)CC2)nn2ccc(-c3ccc4nc(C)n(CC(F)F)c4c3)c12 [Compound 112, trans-4-((5-(1-(2,2-Difluoroethyl)-2-methyl-1H-benzo[d]imidazol-6-yl)-4-methoxypyrrolo[2,1-f][1,2,4]triazin-2-yl)amino)-1-methylcyclohexan-1-ol] | 2.6 nM |
| COc1nc(N[C@H]2CN(C)C[C@H]2F)nn2ccc(-c3ccc4nc(C)n(CC(F)F)c4c3)c12 [Compound 113, 5-(1-(2,2-Difluoroethyl)-2-methyl-1H-benzo[d]imidazol-6-yl)-N-((3S,4R)-4-fluoro-1-methylpyrrolidin-3-yl)-4-methoxypyrrolo[2,1-f][1,2,4]triazin-2-amine] | 3.3 nM |
| COc1nc(N[C@@H]2CN(C)C[C@@H]2F)nn2ccc(-c3ccc4nc(C)n(CC(F)F)c4c3)c12 [Compound 114, 5-(1-(2,2-Difluoroethyl)-2-methyl-1H-benzo[d]imidazol-6-yl)-N-((3R,4S)-4-fluoro-1-methylpyrrolidin-3-yl)-4-methoxypyrrolo[2,1-f][1,2,4]triazin-2-amine] | 1.9 nM |

Reference: patent publication US20240002391A1, “4-ALKOXYPYRROLO[2,1-F][1,2,4]TRIAZINES AND PREPARATION AND USES THEREOF” (BioSplice Therapeutics, Inc., priority 2022, published 2024)
